# Measurements reported in patent publication US20100035287A1, “Secreted Luciferase Fluorescent Protein Conjugate Nucleic Acid Construct and Uses Thereof” (THE GENERAL HOSPITAL CORPORATION, priority 2006, published 2010).
# Columns and labels:
# [1] = tested on: ER stress (Gluc secretion), 293T cells; experiment: Real-time monitoring of ER stress with Gluc (Gluc activity in conditioned medium); type: cell-based, human
# Experimental: (§1) Fold induction is calculated with respect to the control non-infected/non-treated cells. […] The mean±S.E.M. is presented on the graphs (n=3), with *p<0.01 as compared to the non-treated cells and as calculated by the student's t-Test. NS=not significant
# Gaussia luciferase for monitoring of ER stress in real-time. Splicing of the XBP-1 mRNA to sXBP1 and expression of BiP protein are generally used as biomarkers for ER stress.
# [2] = tested on: spliced XBP-1 mRNA, 293T cells; experiment: Real-time qRT-PCR for spliced XBP-1 mRNA; type: cell-based, human
# Experimental: as §1, with “cells. […] Blot is also probed with Gluc antibody as well as alpha-tubulin antibody for equal loading.” for “cells.”
# ER stress: total RNA isolation, reverse transcription and real-time qPCR. 293T cells were plated at 1×10^6 cells/mL in a 12-well plate. Cells were treated with different concentrations of DTT (Sigma) for 4 h. Total RNA was isolated using the RNeasy mini kit (Quiagen, Valencia, Calif.) and concentration was determined by measuring the OD260 using a spectrophotometer (Bio-Rad, Hercules, Calif.). Reverse transcription was performed on 200 ng RNA (in 10 μl) at 37° C. for 60 min using an Omniscript reverse transcription kit (Quiagen). Two μL of each cDNA sample were used for real-time PCR. Biological triplicates were measured twice. The following primers were used: Forward 5′-[…]-3′ (SEQ ID NO: 10) and Reverse 5′-[…]-3′ (SEQ ID NO: 11). These primers were designed to span a 26 bp intron in the unspliced XBP1 mRNA [12]. […] The fold increase was calculated based on Ct values of treated cells relative to control non-infected and non-treated cells normalized to the values for GAPDH endogenous control.
# [3] = tested on: BiP, 293T cells; experiment: Western blot for BiP; type: cell-based, human; details: DTT 0.03-2 mM, 24 h, dose dependent
# Experimental: as §1, with “cells. […] Blot is also probed with Gluc antibody as well as alpha-tubulin antibody for equal loading.” for “cells.”
# Western blot. Total cell lysates were prepared in lysis buffer containing 150 mM NaCl, 50 mM TRIS, pH 8.0, 1% NP-40, 0.5% deoxycholate, 0.1% SDS, and protease inhibitors (PI Complete; Boehringer Mannheim, Indianapolis, Ind.). Forty μg protein were electrophoresed in 12.5% SDS-polyacrylamide gels, and transferred to nitrocellulose membranes (Bio-Rad). […] Membranes were then incubated with horseradish peroxidase (HRP) conjugated to secondary antibodies: sheep anti-mouse IgG-HRP (1:10,000) or donkey anti-rabbit IgG-HRP (1:10,000) (Amersham Pharmacia Biotech, Piscataway, N.J.). For protein detection we used SuperSignal West Pico Chemiluminescent Substrate™ (Pierce, Rockford, Ill.).
# [4] = tested on: secretory pathway (Gluc secretion), 293T cells; experiment: Blocking of secretory pathway: Gluc activity in conditioned medium of drug-treated cells; type: cell-based, human; details: 24 h, 5 μg/ml BFA, 3 μg/ml monensin A, 10 μg/ml nocodazole, 5 μg/ml cytochalasin B
# Experimental: Cells were treated for 24 h with different drugs which interfere with the secretory pathway. […] Scale bar, 10 μm. Luciferase activity. […] For Fluc detection, 450 μM Beetle D-luciferin (Molecular Imaging Products, Ann Arbor, Mich.) was added directly to the viable cells, in a 96 well plate and measured as above. The signal was measured for 10 sec and integrated over 2 sec in both cases. Blocking of secretory pathway.
# [5] = tested on: secretory pathway (Gluc-YFP secretion); experiment: Gluc-YFP fusion: secretion and localization after BFA or nocodazole; type: cell-based, human; details: for secretion of Gluc-YFP luciferase activity: cells expressing Gluc-YFP, conditioned medium 24 h after treatment
# Experimental: Blocking of secretory pathway. […] Forty-eight h post-infection, cells were treated with either 5 μg/ml BFA, 3 μg/ml monensin A (MonA), 10 μg/ml nocodazole (Noc) or 5 μg/ml cytochalasin B (CytB) all obtained from Sigma.
# [6] = tested on: secretory pathway (Gluc secretion); experiment: Bioluminescence from media of Gluc expressing cells treated with secretory pathway inhibitors (FIG. 11); type: cell-based
# Description: Nocodazone disrupts microtubule function and BrefeldinA disrupts golgi function.
# This confirms Gluc is being secreted the secretory pathway.
# [7] = tested on: unfolded protein response (GRP78); experiment: Immunoblotting for GRP78, unfolded protein response (FIG. 12); type: cell-based; details: cells treated with tunicamycin
# Experimental: Immunobloting for GRP76 of protein lysates from cells not expressing Gluc in the absence (untreated) or presence of tunicamycin, an agent which upregulates the UPR, compared with untreated cells expressing the Gluc-YFP conjugate protein.
# To assess the effect of Gluc expression on cell physiology and to ask if Gluc expression triggers an ER stress response and/or induces the unfolded protein response (UPR), cells were treated with tunicamycin, an agent which upregulates the UPR in the presence or absence of Gluc expression.
Molecule,decrease of Gluc secretion into the conditioned medium [4],secretion of Gluc-YFP luciferase activity [5],bioluminescence from the media compared to untreated cells [6],also measured
"O[C@H](CS)[C@H](O)CS (racemic) [DTT, dithiothreitol]",–,–,–,"Gluc secretion in the conditioned medium over time ([1]; 1 mM DTT, real-time monitoring, started to recover after 4 h, normal level after 24 h): complete inhibition of secretion for the first 3 h; secretion of Gluc ([1]; DTT 0.03-2 mM, 4 h): decrease; extent of XBP-1 mRNA splicing ([2]; DTT 0.03-2 mM, 4 h, dose dependent): increased; amount of BiP [3]: increased"
"C[C@H]1CCC/C=C/[C@@H]2C[C@H](O)C[C@H]2[C@H](O)/C=C/C(=O)O1 [BFA, brefeldinA]",about 90%,blocked to the same extent as for Gluc,reduced,localization of Gluc-YFP fusion protein ([5]; real-time confocal microscopy on live cells): trapped in the ER
C=C1[C@@H](C)[C@H]2[C@H](Cc3ccccc3)NC(=O)[C@]23OC(=O)/C=C/[C@H](O)CCC[C@@H](C)C/C=C/[C@H]3[C@@H]1O [cytochalasin B],~30%,–,–,–
CC[C@@]1([C@@H]2O[C@@H]([C@H]3O[C@@](O)(CO)[C@H](C)C[C@@H]3C)C[C@@H]2C)CC[C@H]([C@]2(C)CC[C@]3(C[C@H](O)[C@@H](C)[C@@H]([C@@H](C)[C@@H](OC)[C@H](C)C(=O)O)O3)O2)O1 [monensin A],~65%,–,–,–
COC(=O)Nc1nc2ccc(C(=O)c3cccs3)cc2[nH]1 [nocodazole],~75%,blocked to the same extent as for Gluc,reduced,–
tunicamycin,–,–,–,decrease in Gluc secretion ([1]; tunicamycin 3 μg/ml for 4 h): over 90%; increase in spliced XBP-1 message ([2]; tunicamycin 3 μg/ml for 4 h): 9 fold; expression of GRP78 [7]: detected
